Data published in patent US20020049151A1, “Therapeutic approaches to diseases by suppression of the NURR subfamily of nuclear transcription factors” (priority 2000, published 2002).

System: NURR1 mRNA
Assay: Northern blot of NURR1 mRNA in synovium explants
Format: cell-based, human
Details: RA and PsA synovium explants; CRH 10^−8 M; IL-6 10 ng/ml
Protocol: To determine whether the NURR subfamily contribute to CRH signaling in a pathological context, freshly excised RA (FIG. 4A) and PsA synovium explants were incubated with CRH (10^−8 M) and examined for its ability to induce expression of NURR1 and NUR77 transcripts. […] Furthermore, analysis of synovium explants indicates higher endogenous and CRH-inducible NURR1 mRNA compared to NUR77 transcript levels.
In FIG. 4 total RNA was extracted and northern blot analysis was performed. Filters were hybridized with a cDNA for NURR1 or NUR77 and also with GAPDH to control for loading and transfer. Synovial explants were left untreated [C] or incubated with 10^−8M CRH for the indicated times. (FIG. 4A) Confluent monolayers of primary synoviocytes were left untreated [C] or pretreated with 10^−8M dexamethasone (DEX) for 2 h prior to the addition of 25μM forskolin (FOR) or 20 ng/ml of phorbal myristic acetate (PMA). (FIG. 4B)
For FIG. 6 each membrane was reprobed with a GAPDH cDNA to control for loading and transfer. NURR1 mRNA levels were measured by northern analysis using total RNA extracted from synoviocytes left untreated [C] or cultured for the time indicated with (A) TNFα (10 ng/ml) in the presence or absence of pre-treatment with 10^−8M dexamethasone (DEX). (B) IL-1β(10 ng/ml) in the presence or absence of pretreatment with 2 μM indomethacin (INDO) or 10^−8M DEX. (C) or synovial explants cultured with IL-6 (10 ng/ml). (D) 1 μM PGE2. (E) 25 μM forskolin (FOR) or […] for 1h in the absence or presence of 5 µg/ml cycloheximide (CHX).
Total RNA was isolated from cultured primary synoviocytes or synovial explants. RNA was quantitated by UV absorption and 10 μg of total RNA were electrophoresed on a standard northern gel and transferred to nylon membrane (BioRad, Richmond, Calif.). NURR1 and NUR77 cDNA probes (Murphy and Conneely, 1997), spanning the amino terminal region to avoid cross-hybridization, were radiolabeled to a high specific activity using [α-^32P] dCTP and a random primer labeling system (Promega, Madison, Wis.). Blots were exposed to film at −80° C. using intensifying screens and autoradiographic intensity was quantitated using an imaging densitometer.

Question: How did the “NURR1 mRNA induction in synovium explants” value turn out when IL-6: pro-inflammatory cytokine was run?
Answer: The value was “rapid and marked increase”.
